In patent publication US8937091B2 (Japan Science and Technology Agency, priority 2009, dated 2015):
pIC50: −log10 of the molar value.

Assays:
[1] = tested on: SOCE (store operated calcium entry) in CHO cells; experiment: Assay of SOCE (store operated calcium entry)-inhibiting action; type: cell-based, Chinese hamster; conditions: Cricetulus griseus, CHO; for inhibition at 10 µM: test compound 10 μmol; for inhibition at 10 µM / inhibition at 30 µM / inhibition at 100 µM: CHO cells, thapsigargin, read-out: SOCE level (percentage of inhibition); for inhibition at 30 µM: test compound 30 μmol; for inhibition at 100 µM: test compound 100 μmol
Procedure: The extracellular fluid (i.e., medium) of cultured Chinese hamster ovary (CHO) cells was replaced by BSS containing no calcium. One minute later, a test compound was added. Two minutes later, 1 μM thapsigargin was added to cause depletion of the intracellular calcium store. Nine minutes later, calcium chloride (final concentration: 2 mM) was added to the extracellular fluid. The SOCE-inhibiting action levels at different compound concentrations after the addition of calcium chloride were determined as the percentage of inhibition (%) by evaluating the influence of the compound on the degree of increase in the intracellular calcium concentration.
(§1) Hereafter, the numerals in parentheses written after the TG level, the SOCE level, and the IICR level correspond to the test compound concentrations. The number following the name of each title compound used in the Examples below represents a compound ID number designated arbitrarily by the present inventors.

[2] = tested on: IICR (IP3 induced calcium release) in CHO cells; experiment: Assay of IICR (IP3 induced calcium release)-inhibiting action; type: cell-based, Chinese hamster; conditions: Cricetulus griseus, CHO; for inhibition at 10 µM: test compound 10 μmol; for inhibition at 10 µM / inhibition at 30 µM / inhibition at 100 µM: CHO cells, 10 μM ATP, read-out: IICR level (percentage of inhibition); for inhibition at 30 µM: test compound 30 μmol; for inhibition at 100 µM: test compound 100 μmol
Procedure: The extracellular fluid (i.e., medium) of cultured CHO cells was replaced by BSS containing calcium. One minute later, a test compound was added. Two minutes later, 10 μM ATP was added. The IICR-inhibiting action levels at different compound concentrations after the addition of ATP were determined as the percentage of inhibition (%) by evaluating the influence of the compound on the degree of increase in the intracellular calcium concentration.
as §1

With `CN(CCC(=O)c1ccc(Br)s1)Cc1ccccc1` [Example 326, 2-(N-benzylmethyl)aminoethyl-5-bromo-2-thienylketone] the inhibition at 10 µM [1] was 10%, the inhibition at 30 µM [1] was 30% and the inhibition at 100 µM [1] was 60%. The inhibition at 10 µM [2] was 40%, the inhibition at 30 µM [2] was 10% and the inhibition at 100 µM [2] was 40%.
With `CCCCCCN(CCCCCC)CCC(=O)c1ccc(Br)s1` [Example 383, 2-(N,N-dihexyl)aminoethyl-5-bromo-2-thienylketone] the inhibition at 10 µM [1] was 25%, the inhibition at 30 µM [1] was 16% and the inhibition at 100 µM [1] was 46%. For the same molecule, the inhibition at 10 µM [2] was 0%, the inhibition at 30 µM [2] was 5% and the inhibition at 100 µM [2] was 0%.
`CC(C)(C)N(CCC(=O)c1ccncc1)Cc1ccccc1` [Example 210, 2-(N-t-butylbenzyl)aminoethyl-4-pyridylketone] showed an inhibition at 10 µM [1] of 0%, an inhibition at 30 µM [1] of 10% and an inhibition at 100 µM [1] of 30%. For the same molecule, the inhibition at 10 µM [2] was 0%, the inhibition at 30 µM [2] was 20% and the inhibition at 100 µM [2] was 0%.
`CC(C)(C)N(CCC(=O)c1ccc2c(c1)OCCO2)Cc1ccccc1` [Example 317, 2-(N-benzyl-t-butyl)aminoethyl-5,6-ethylenedioxy-2-phenylketone] showed an inhibition at 10 µM [1] of 10%, an inhibition at 30 µM [1] of 10% and an inhibition at 100 µM [1] of 30%. The inhibition at 10 µM [2] was 90%, the inhibition at 30 µM [2] was 95% and the inhibition at 100 µM [2] was 100%.
`O=C(CCN(CCO)Cc1ccccc1)c1cnccn1` [Example 129, 2-(N-benzylhydroxyethyl)aminoethyl-2-pyrazylketone] was tested, and the inhibition at 10 µM [1] was 0%, the inhibition at 30 µM [1] was 0% and the inhibition at 100 µM [1] was 0%. For the same molecule, the inhibition at 10 µM [2] was 0%, the inhibition at 30 µM [2] was 50% and the inhibition at 100 µM [2] was 90%.
In the case of `CCN(CCC(=O)c1ccc(C)s1)Cc1ccccc1` [Example 319, 2-(N-benzylethyl)aminoethyl-5-methyl-2-thienylketone], the inhibition at 10 µM [1] was 0%, the inhibition at 30 µM [1] was 10% and the inhibition at 100 µM [1] was 20%. It also gave an inhibition at 10 µM [2] of 20%, an inhibition at 30 µM [2] of 10% and an inhibition at 100 µM [2] of 70%.
Work on `Cc1cc(C(=O)CCN(CCO)CCO)c(C)s1` [Example 229, 2-(N,N-bis-2-hydroxyethyl)aminoethyl-2,5-dimethyl-3-thiophenylketone] yielded an inhibition at 10 µM [1] of 0%, an inhibition at 30 µM [1] of 0% and an inhibition at 100 µM [1] of 0%. For the same molecule, the inhibition at 10 µM [2] was 0%, the inhibition at 30 µM [2] was 0% and the inhibition at 100 µM [2] was 0%.
`CN(CCO)CCC(=O)c1cccn1C` [Example 167, 2-(N-methyl-2-hydroxyethyl)aminoethyl-2-(N-methylpyrrolyl)ketone] showed an inhibition at 10 µM [1] of 0%, an inhibition at 30 µM [1] of 0% and an inhibition at 100 µM [1] of 0%. It also gave an inhibition at 10 µM [2] of 0%, an inhibition at 30 µM [2] of 0% and an inhibition at 100 µM [2] of 0%.
`NCCSSCCN(CCC(=O)c1ccc(Br)cc1)CCC(=O)c1ccc(Br)cc1` [Example 367, N,N-bis(2-(4-bromo-benzoyl)ethyl)cystamine] was tested, and the inhibition at 10 µM [1] was 0%, the inhibition at 30 µM [1] was 17% and the inhibition at 100 µM [1] was 96%. It also gave an inhibition at 10 µM [2] of 0%, an inhibition at 30 µM [2] of 0% and an inhibition at 100 µM [2] of 70%.
In the case of `O=C(CCN(CCO)Cc1ccccc1)c1ccc[nH]1` [Example 173, 2-(N-benzylhydroxyethyl)aminoethyl-2-pyrrolylketone], the inhibition at 10 µM [1] was 0%, the inhibition at 30 µM [1] was 0% and the inhibition at 100 µM [1] was 0%. The inhibition at 10 µM [2] was 0%, the inhibition at 30 µM [2] was 50% and the inhibition at 100 µM [2] was 80%.
`CN(CCO)CCC(=O)c1ccc(Br)s1` [Example 328, 2-(N-hydroxyethylmethyl)aminoethyl-5-bromo-2-thienylketone] gave an inhibition at 10 µM [1] of 10%, an inhibition at 30 µM [1] of 10% and an inhibition at 100 µM [1] of 0%. The inhibition at 10 µM [2] was 0%, the inhibition at 30 µM [2] was 10% and the inhibition at 100 µM [2] was 80%.
In the case of `CC(C)(C)N(CCC(=O)c1ccc(Cl)s1)Cc1ccccc1` [Example 280, 2-(N-t-butylbenzyl)aminoethyl-5-chloro-2-thienylketone], the inhibition at 30 µM [1] was 0%, the inhibition at 100 µM [1] was 30% and the inhibition at 10 µM [2] was 50%. For the same molecule, the inhibition at 30 µM [2] was 60% and the inhibition at 100 µM [2] was 70%.
With `O=C(CCN(c1ccccc1)c1ccccc1)c1ccc2ccccc2c1` [Example 75, 2-(N-diphenyl)aminoethyl-2-naphthylketone] the inhibition at 10 µM [1] was 0%, the inhibition at 30 µM [1] was 0% and the inhibition at 100 µM [1] was 0%. For the same molecule, the inhibition at 10 µM [2] was 0%, the inhibition at 30 µM [2] was 0% and the inhibition at 100 µM [2] was 0%.
With `O=C(CCNCCCO)c1cnccn1` [Example 270, 2-(N-hydroxypropyl)aminoethyl-2-pyrazylketone] the inhibition at 30 µM [1] was 10%, the inhibition at 100 µM [1] was 30% and the inhibition at 10 µM [2] was 20%. It also gave an inhibition at 30 µM [2] of 0% and an inhibition at 100 µM [2] of 10%.
With `CC(C)(C)N(CCC(=O)c1cccnc1)Cc1ccccc1` [Example 231, 2-(N-benzyl-t-butyl)aminoethyl-3-pyridylketone] the inhibition at 10 µM [1] was 0%, the inhibition at 30 µM [1] was 0% and the inhibition at 100 µM [1] was 0%. It also gave an inhibition at 10 µM [2] of 20%, an inhibition at 30 µM [2] of 90% and an inhibition at 100 µM [2] of 100%.
Molecule `O=C(CCNCCCCNCCCNCCC(=O)c1ccncc1)c1ccncc1` [Example 216, N,N-bis(4-pyrizoylethyl)spermidine] has an inhibition at 10 µM [1] of 0%, an inhibition at 30 µM [1] of 10% and an inhibition at 100 µM [1] of 10%. For the same molecule, the inhibition at 10 µM [2] was 0%, the inhibition at 30 µM [2] was 0% and the inhibition at 100 µM [2] was 30%.
For `CC(C)N(CCC(=O)c1ccc(F)cc1)Cc1ccccc1` [Example 212, 2-(N-isopropylbenzyl)aminoethyl-4-fluorophenylketone], the inhibition at 10 µM [1] was 0%, the inhibition at 30 µM [1] was 30% and the inhibition at 100 µM [1] was 50%. The inhibition at 10 µM [2] was 20%, the inhibition at 30 µM [2] was 80% and the inhibition at 100 µM [2] was 30%.
`CC(CNC12CC3CC(CC(C3)C1)C2)C(=O)c1ccc(F)cc1` (stereo not drawn) [Example 191] was tested, and the inhibition at 10 µM [1] was 0%, the inhibition at 30 µM [1] was 0% and the inhibition at 100 µM [1] was 0%. The inhibition at 10 µM [2] was 0%, the inhibition at 30 µM [2] was 0% and the inhibition at 100 µM [2] was 0%.
Work on `O=C(CCNC(O)c1ccccc1)c1ccc(Br)s1` (stereo not drawn) [Example 353, 2-(1-hydroxy-1-phenylmethyl)aminoethyl-5-bromo-2-thienylketone] yielded an inhibition at 10 µM [1] of 0%, an inhibition at 30 µM [1] of 0% and an inhibition at 100 µM [1] of 7%. The inhibition at 10 µM [2] was 60%, the inhibition at 30 µM [2] was 0% and the inhibition at 100 µM [2] was 20%.
`O=C(CCN(CCO)CCO)n1nnc2ccccc21` [Example 296, 2-bis(N-2-hydroxyethyl)aminoethyl-1-benzotriazoketone] was tested, and the inhibition at 10 µM [1] was 0%, the inhibition at 30 µM [1] was 0% and the inhibition at 100 µM [1] was 20%. The inhibition at 10 µM [2] was 0%, the inhibition at 30 µM [2] was 50% and the inhibition at 100 µM [2] was 60%.
Work on `CN(CCC(=O)c1ccc(Oc2ccccc2)cc1)Cc1ccccc1` [Example 86, 2-(N-methylbenzyl)aminoethyl-4-phenoxyphenylketone] yielded an inhibition at 10 µM [1] of 0%, an inhibition at 30 µM [1] of 20% and an inhibition at 100 µM [1] of 50%. For the same molecule, the inhibition at 10 µM [2] was 30%, the inhibition at 30 µM [2] was 70% and the inhibition at 100 µM [2] was 95%.
Work on `CCN(CCC(=O)c1ccc(F)cc1)Cc1ccccc1` [Example 313, 2-(N-benzylethyl)aminoethyl-4-fluoro-phenylketone] yielded an inhibition at 10 µM [1] of 0%, an inhibition at 30 µM [1] of 0% and an inhibition at 100 µM [1] of 30%. It also gave an inhibition at 10 µM [2] of 20%, an inhibition at 30 µM [2] of 20% and an inhibition at 100 µM [2] of 30%.
In the case of `O=C(CCNC12CC3CC(CC(C3)C1)C2)c1ccccc1` [Example 189, 2-N-adamantaneaminoethylphenylketone], the inhibition at 10 µM [1] was 0%, the inhibition at 30 µM [1] was 10% and the inhibition at 100 µM [1] was 10%. For the same molecule, the inhibition at 10 µM [2] was 0%, the inhibition at 30 µM [2] was 0% and the inhibition at 100 µM [2] was 0%.
Molecule `CC(C)N(CCC(=O)c1ccncc1)Cc1ccccc1` [Example 107, 2-(N-isopropylbenzyl)aminoethyl-4-pyridylketone] has an inhibition at 10 µM [1] of 0%, an inhibition at 30 µM [1] of 20% and an inhibition at 100 µM [1] of 30%. For the same molecule, the pIC50 ([1]; Table 1) was < 4.00, the inhibition at 10 µM [2] was 30% and the inhibition at 30 µM [2] was 90%. The inhibition at 100 µM [2] was 90% and the pIC50 ([2]; Table 1) was > 5.00.
Work on `CCCCN(CCC(=O)c1ccco1)Cc1ccccc1` [Example 377, 2-(N-butyl-N-benzyl)aminoethyl-2-furylketone] yielded an inhibition at 10 µM [1] of 21%, an inhibition at 30 µM [1] of 0% and an inhibition at 100 µM [1] of 27%. For the same molecule, the inhibition at 10 µM [2] was 22%, the inhibition at 30 µM [2] was 20% and the inhibition at 100 µM [2] was 36%.
Work on `Cc1nc(C)c(C(=O)CCNCCNCCO)s1` [Example 220, 2-(N-2-hydroxyaminoethyl)aminoethyl-5-(2,4-dimethylthiazolyl)ketone] yielded an inhibition at 10 µM [1] of 0%, an inhibition at 30 µM [1] of 0% and an inhibition at 100 µM [1] of 0%. For the same molecule, the inhibition at 10 µM [2] was 0%, the inhibition at 30 µM [2] was 40% and the inhibition at 100 µM [2] was 40%.
